Assay results taken from ChEMBL document CHEMBL1141493, “Synthesis and structure-activity relationships of heteroaryl substituted-3,4-diamino-3-cyclobut-3-ene-1,2-dione CXCR2/CXCR1 receptor antagonists” (Bioorg Med Chem Lett, 2008).
The source made the active and inactive calls. The calls are words filed in the database; no cut-off is given here.

Columns and labels:
[1] = molecular target: T1, C-X-C chemokine receptor type 1 (Homo sapiens, UniProt P25024); assay: Inhibition of CXCR1
T1 sequence (P25024 whole entry): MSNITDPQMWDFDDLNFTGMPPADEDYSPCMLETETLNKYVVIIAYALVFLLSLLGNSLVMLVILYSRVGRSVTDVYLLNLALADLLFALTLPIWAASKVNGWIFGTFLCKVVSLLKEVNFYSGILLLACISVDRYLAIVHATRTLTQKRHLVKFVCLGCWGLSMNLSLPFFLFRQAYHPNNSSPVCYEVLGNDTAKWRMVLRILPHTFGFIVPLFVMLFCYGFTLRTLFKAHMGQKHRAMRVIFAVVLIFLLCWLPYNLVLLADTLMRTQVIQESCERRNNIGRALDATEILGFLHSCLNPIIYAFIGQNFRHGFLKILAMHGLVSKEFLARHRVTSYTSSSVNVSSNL

[2] = molecular target: T2, C-X-C chemokine receptor type 2 (Homo sapiens, UniProt P25025); assay: Inhibition of CXCR2
T2 sequence (P25025 whole entry): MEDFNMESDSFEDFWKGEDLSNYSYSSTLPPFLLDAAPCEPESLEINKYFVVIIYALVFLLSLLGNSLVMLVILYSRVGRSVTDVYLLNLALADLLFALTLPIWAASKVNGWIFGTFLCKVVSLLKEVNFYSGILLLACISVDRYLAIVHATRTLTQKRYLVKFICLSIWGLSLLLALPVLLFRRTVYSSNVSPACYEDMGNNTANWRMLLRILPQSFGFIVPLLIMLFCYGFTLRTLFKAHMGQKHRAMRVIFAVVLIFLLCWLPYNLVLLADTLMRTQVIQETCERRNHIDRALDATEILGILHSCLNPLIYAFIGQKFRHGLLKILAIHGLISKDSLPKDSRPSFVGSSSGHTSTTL

[3] = molecular target: T3, C-X-C chemokine receptor type 1 (Homo sapiens) (UniProt P25024); assay: Inhibition of CXCR1-mediated chemotaxis in Ba/F3 cells expressing human CXCR1 at >10000 nM; format: cell-based; conditions: BaF3
T3 sequence (whole entry): T1 sequence (P25024 whole entry)

[4] = molecular target: T3, C-X-C chemokine receptor type 1 (Homo sapiens); assay: Inhibition of CXCR1 at >10000 nM
[5] = AUC in rat at 10 mg/kg, po; format: ADME, organism-based; design: dose 10 mg/kg, route oral; conditions: plasma

SMILES	IC50 [1] [nM]	IC50 [2] [nM]	Activity [3]	Activity [4]	AUC [5] [µM·h]
CC[C@@H](Nc1c(Nc2cccc(C(=O)N(C)C)c2O)c(=O)c1=O)c1ccccn1	148	3.3	inactive	–	–
CCC(Nc1c(Nc2cccc(C(=O)N(C)C)c2O)c(=O)c1=O)c1ccc(Cl)s1 (stereo not given)	1110	6.2	–	–	–
CCC(Nc1c(Nc2cccc(C(=O)N(C)C)c2O)c(=O)c1=O)c1ccoc1 (stereo not given)	812	8	–	–	–
CCC(Nc1c(Nc2cccc(C(=O)N(C)C)c2O)c(=O)c1=O)c1ccc(CO)o1 (stereo not given)	182	2.8	–	–	–
CCC(Nc1c(Nc2cccc(C(=O)N(C)C)c2O)c(=O)c1=O)c1ccc(Br)o1 (stereo not given)	463	4.7	–	–	–
CC[C@@H](Nc1c(Nc2cccc(C(=O)N(C)C)c2O)c(=O)c1=O)c1ccsc1	104	3.4	–	–	–
CCC(Nc1c(Nc2cccc(C(=O)N(C)C)c2O)c(=O)c1=O)c1ccno1 (stereo not given)	302	9.8	–	–	–
CCC(Nc1c(Nc2cccc(C(=O)N(C)C)c2O)c(=O)c1=O)c1ccc(-c2ccccc2C(F)(F)F)o1 (stereo not given)	–	150	–	inactive	–
CCC(Nc1c(Nc2cccc(C(=O)N(C)C)c2O)c(=O)c1=O)c1cc(-c2c(C)noc2C)co1 (stereo not given)	345	7.6	–	–	–
CC[C@@H](Nc1c(Nc2cccc(C(=O)N(C)C)c2O)c(=O)c1=O)c1cc(C)on1	171	6.3	inactive	–	3.7
CCC(Nc1c(Nc2cccc(C(=O)N(C)C)c2O)c(=O)c1=O)c1nccs1 (stereo not given)	703	9.8	–	–	–
CCC(Nc1c(Nc2cccc(C(=O)N(C)C)c2O)c(=O)c1=O)c1cc(Br)co1 (stereo not given)	93	5	–	–	–
CCC(Nc1c(Nc2cccc(C(=O)N(C)C)c2O)c(=O)c1=O)c1ccc(C(F)(F)F)o1 (stereo not given)	6060	17.2	–	–	–
CCC(Nc1c(Nc2cccc(C(=O)N(C)C)c2O)c(=O)c1=O)c1cc(-c2ccncc2)co1 (stereo not given)	526	9.5	–	–	–
CCC(Nc1c(Nc2cccc(C(=O)N(C)C)c2O)c(=O)c1=O)c1ccc(-c2cccc(C(F)(F)F)c2)o1 (stereo not given)	3430	87	–	–	–
CCC(Nc1c(Nc2cccc(C(=O)N(C)C)c2O)c(=O)c1=O)c1sccc1Cl (stereo not given)	1370	21	–	–	–
CCC(Nc1c(Nc2cccc(C(=O)N(C)C)c2O)c(=O)c1=O)c1ccco1 (stereo not given)	67	5	–	–	–
CCC(Nc1c(Nc2cccc(C(=O)N(C)C)c2O)c(=O)c1=O)c1cocn1 (stereo not given)	805	10.9	–	–	–
CC[C@@H](Nc1c(Nc2cccc(C(=O)N(C)C)c2O)c(=O)c1=O)c1cc(Cl)co1	62	3.8	–	–	21.5
CCC(Nc1c(Nc2cccc(C(=O)N(C)C)c2O)c(=O)c1=O)c1cc(-c2ccsc2)co1 (stereo not given)	221	8.2	–	–	–

SMILES	IC50 [1] [nM]	IC50 [2] [nM]	Activity [3]	Activity [4]	AUC [5] [µM·h]
CCC(Nc1c(Nc2cccc(C(=O)N(C)C)c2O)c(=O)c1=O)c1ncco1 (stereo not given)	795	8.6	–	–	–
CCC(Nc1c(Nc2cccc(C(=O)N(C)C)c2O)c(=O)c1=O)c1ccc(Cl)o1 (stereo not given)	275	4.8	–	–	–
CCC(Nc1c(Nc2cccc(C(=O)N(C)C)c2O)c(=O)c1=O)c1cc(-c2ccccc2)co1 (stereo not given)	150	6.1	–	–	–
CCC(Nc1c(Nc2cccc(C(=O)N(C)C)c2O)c(=O)c1=O)c1occc1Br (stereo not given)	1020	16.5	–	–	–
CC[C@@H](Nc1c(Nc2cccc(C(=O)N(C)C)c2O)c(=O)c1=O)c1ccc(Cl)o1	244	4.6	–	–	–
CCC(Nc1c(Nc2cccc(C(=O)N(C)C)c2O)c(=O)c1=O)c1ccc(-c2ccccc2Cl)o1 (stereo not given)	4870	49	–	–	–
CCC(Nc1c(Nc2cccc(C(=O)N(C)C)c2O)c(=O)c1=O)c1cc(C)on1 (stereo not given)	224	7.5	–	–	–
CCC(Nc1c(Nc2cccc(C(=O)N(C)C)c2O)c(=O)c1=O)c1ccc(-c2cccc(Cl)c2)o1 (stereo not given)	3380	58	–	–	–
CCC(Nc1c(Nc2cccc(C(=O)N(C)C)c2O)c(=O)c1=O)c1cccn1C (stereo not given)	–	815	–	inactive	–
CCC(Nc1c(Nc2cccc(C(=O)N(C)C)c2O)c(=O)c1=O)c1nc(C)no1 (stereo not given)	289	8.2	–	–	–
CCC(Nc1c(Nc2cccc(C(=O)N(C)C)c2O)c(=O)c1=O)c1cc2ccccc2o1 (stereo not given)	412	3.5	–	–	–
CCc1ccc(C(CC)Nc2c(Nc3cccc(C(=O)N(C)C)c3O)c(=O)c2=O)o1 (stereo not given)	854	4.1	–	–	–
CCC(Nc1c(Nc2cccc(C(=O)N(C)C)c2O)c(=O)c1=O)c1ccc(C(F)F)o1 (stereo not given)	568	6.8	–	–	–
CCC(Nc1c(Nc2cccc(C(=O)N(C)C)c2O)c(=O)c1=O)c1cc(Cl)co1 (stereo not given)	100	4.5	–	–	–
CCC(Nc1c(Nc2cccc(C(=O)N(C)C)c2O)c(=O)c1=O)c1ccc(C(=O)N(C)C)o1 (stereo not given)	–	171	–	inactive	–
CCC(Nc1c(Nc2cccc(C(=O)N(C)C)c2O)c(=O)c1=O)c1ccsc1 (stereo not given)	165	5.8	–	–	–
CC[C@@H](Nc1c(Nc2cccc(C(=O)N(C)C)c2O)c(=O)c1=O)c1cc(Br)co1	55	3.5	–	–	33.4
CCC(Nc1c(Nc2cccc(C(=O)N(C)C)c2O)c(=O)c1=O)c1ccc(CN(C)C)o1 (stereo not given)	–	94	–	inactive	–
CCC(Nc1c(Nc2cccc(C(=O)N(C)C)c2O)c(=O)c1=O)c1cccs1 (stereo not given)	179	6.2	–	–	–
CCC(Nc1c(Nc2cccc(C(=O)N(C)C)c2O)c(=O)c1=O)c1ccncc1 (stereo not given)	2860	50	–	–	–
